Marks after values point to notes of the source that are not given here.
Test system: Human Neuroblastoma (SHSY5Y) cells
Assay: mRNA levels by Sybr-Green real-time RT-PCR
Format: cell-based
Method: mRNA levels of mitochondrial dynamics, mitochondrial biogenesis and synaptic genes. Using the reagent TriZol (Invitrogen), the inventors isolated total RNA from all DDQ-treated and untreated cells. mRNA levels of mitochondrial dynamic (Drp1, Fis1, Mfn1 and Mfn2), mitochondrial biogenesis genes (PGC1α, Nrf1, Nrf2 and TFAM) and synaptic genes (PSD95, synaptophysin, synapsin 1, synapsin 2, synaptobrevin 1, synaptobrevin 2, synaptopodin, and GAP43) were measured by using Sybr-Green chemistry-based quantitative real time RT-PCR.
FIG. 3 illustrates the experimental strategy of the cell culture work and including treatments. The cells were grown in a medium (1:1 DMEM and F12, 10% FBS, lx penicillin, and streptomycin) at 37° C. in a humified incubator with a 5% CO2 environment. After seeding were allowed to grow for 24-48 hrs or until 80% confluence in six-well plates and used for experiments. The inventors used five different groups of cells—(1) untreated SHSY5Y cells; (2) SHSY5Y cells treated with DDQ (250 nM final concentration) for 24 hrs; (3) SHSY5Y cells incubated with Aβ peptide 1-42 (20 uM final concentration) for 6 hrs; (4) SHSY5Y cells treated Aβ for 6 hrs+DDQ for 24 hrs and (5) SHSY5Y cells treated DDQ for 24 hrs and Aβ for 6 hrs. Half a million SHSY5Y cells were suspended per well into six-well plates. The inventors used Aβ peptide 1-42 and DDQ 250 nM in the experiments. After treatments, the inventors harvested cells, conducted experiments to measure the levels mRNA using Sybr-Green based real-time RT-PCR, proteins using immunoblotting and immunofluorescence analysis and cell viability using MTT assay. The inventors counted the number of mitochondria by electron microscopy.
Quantification of mitochondrial dynamics, biogenesis and synaptic genes expression using real-time RT-PCR. Using the reagent TriZol (Invitrogen), the inventors isolated total RNA from control and experimental groups (FIG. 3). Using primer express Software (Applied Biosystems), the inventors designed the oligonucleotide primers for the housekeeping genes β-actin, mitochondrial structural genes; fission (Drp1 and Fis1); fusion genes (MFN1, MFN2); mitochondrial biogenesis genes PGC1a, Nrf1, Nrf2 and TFAM; and synaptic genes (PSD95, synaptophysin, synapsin 1, synapsin 2, synaptobrevin 1, synaptobrevin 2, synaptopodin, and GAP43). Using SYBR-Green chemistry-based quantitative real-time RT-PCR, the inventors measured mRNA expression of the genes mentioned above as described by Manczak et al..

[1] = Aβ + DDQ (Aβ1-42 20 μM 6 hrs, then DDQ 24 hrs) vs untreated cells
[2] = Aβ + DDQ (Aβ1-42 6 hrs, then DDQ 24 hrs) vs Aβ treated cells
[3] = DDQ 250 nM 24 hrs vs untreated cells
[4] = DDQ + Aβ (DDQ 24 hrs, then Aβ1-42 6 hrs) vs Aβ treated cells
[5] = DDQ + Aβ (DDQ 24 hrs, then Aβ1-42 6 hrs) vs untreated cells

SMILES: CCOP(=O)(OCC)C(NCCc1ccc(O)c(O)c1)c1ccnc2ccccc12 (stereo not shown) [DDQ, diethyl(3,4-dihydroxyphenethylamine)(quinolin-4-yl)methylphosphonate]
- Drp1 mRNA fold changes [1]: 1.9* fold
- Fis1 mRNA fold changes [1]: −1.2 fold
- GAP43 mRNA fold changes [1]: 1.1 fold
- Mfn1 mRNA fold changes [1]: 1.4 fold
- Mfn2 mRNA fold changes [1]: 1.3 fold
- Nrf1 mRNA fold changes [1]: −1.7* fold
- Nrf2 mRNA fold changes [1]: −1.3 fold
- PGC1a mRNA fold changes [1]: −1.8* fold
- PSD95 mRNA fold changes [1]: −1.4* fold
- Synapsin1 mRNA fold changes [1]: 1.1 fold
- Synapsin2 mRNA fold changes [1]: 1.1 fold
- Synaptobrevin1 mRNA fold changes [1]: −1.1 fold
- Synaptobrevin2 mRNA fold changes [1]: 1.0 fold
- Synaptophysin mRNA fold changes [1]: −2.4* fold
- Synaptopodin mRNA fold changes [1]: −1.1 fold
- TFAM mRNA fold changes [1]: −2.0* fold
- Drp1 mRNA fold changes [2]: −1.7* fold
- Fis1 mRNA fold changes [2]: −2.0* fold
- GAP43 mRNA fold changes [2]: 1.7* fold
- Mfn1 mRNA fold changes [2]: 3.3** fold
- Mfn2 mRNA fold changes [2]: 3.4** fold
- Nrf1 mRNA fold changes [2]: 2.6 fold
- Nrf2 mRNA fold changes [2]: 2.1 fold
- PGC1a mRNA fold changes [2]: 2.5 fold
- PSD95 mRNA fold changes [2]: 1.8* fold
- Synapsin1 mRNA fold changes [2]: 2.1* fold
- Synapsin2 mRNA fold changes [2]: 2.4* fold
- Synaptobrevin1 mRNA fold changes [2]: 2.0* fold
- Synaptobrevin2 mRNA fold changes [2]: 2.1* fold
- Synaptophysin mRNA fold changes [2]: 1.6* fold
- Synaptopodin mRNA fold changes [2]: 2.0* fold
- TFAM mRNA fold changes [2]: 2.3 fold
- Drp1 mRNA fold changes [3]: −2.2* fold
- Drp1 mRNA levels, fold decrease [3]: 2.2 fold
- Fis1 mRNA fold changes [3]: −4.4*** fold
- Fis1 mRNA levels, fold decrease [3]: 4.4 fold
- GAP43 mRNA fold changes [3]: 1.2 fold
- Mfn1 mRNA fold changes [3]: 1.7 fold
- Mfn2 mRNA fold changes [3]: 2.3 fold
- Nrf1 mRNA fold changes [3]: 1.9 fold
- Nrf2 mRNA fold changes [3]: 2.7 fold
- PGC1a mRNA fold changes [3]: 1.5 fold
- PSD95 mRNA fold changes [3]: 1.4 fold
- Synapsin1 mRNA fold changes [3]: 1.0 fold
- Synapsin2 mRNA fold changes [3]: 1.7 fold
- Synaptobrevin1 mRNA fold changes [3]: 1.0 fold
- Synaptobrevin2 mRNA fold changes [3]: 1.3 fold
- Synaptophysin mRNA fold changes [3]: 1.4 fold
- Synaptopodin mRNA fold changes [3]: 1.0 fold
- TFAM mRNA fold changes [3]: 1.7 fold
- Drp1 mRNA fold changes [4]: −4.6*** fold
- Fis1 mRNA fold changes [4]: −2.5* fold
- GAP43 mRNA fold changes [4]: 1.7* fold
- Mfn1 mRNA fold changes [4]: 2.9** fold
- Mfn2 mRNA fold changes [4]: 2.9** fold
- Nrf1 mRNA fold changes [4]: 4.9 fold
- Nrf2 mRNA fold changes [4]: 2.6 fold
- PGC1a mRNA fold changes [4]: 3.9 fold
- PSD95 mRNA fold changes [4]: 2.1* fold
- Synapsin1 mRNA fold changes [4]: 2.5* fold
- Synapsin2 mRNA fold changes [4]: 2.9** fold
- Synaptobrevin1 mRNA fold changes [4]: 1.7* fold
- Synaptobrevin2 mRNA fold changes [4]: 2.3* fold
- Synaptophysin mRNA fold changes [4]: 2.4* fold
- Synaptopodin mRNA fold changes [4]: 2.1* fold
- TFAM mRNA fold changes [4]: 3.2 fold
- Drp1 mRNA fold changes [5]: −2.1* fold
- Fis1 mRNA fold changes [5]: −1.3 fold
- GAP43 mRNA fold changes [5]: 1.1 fold
- Mfn1 mRNA fold changes [5]: 1.2 fold
- Mfn2 mRNA fold changes [5]: 1.1 fold
- Nrf1 mRNA fold changes [5]: 1.1 fold
- Nrf2 mRNA fold changes [5]: −1.1 fold
- PGC1a mRNA fold changes [5]: −1.1 fold
- PSD95 mRNA fold changes [5]: −1.2 fold
- Synapsin1 mRNA fold changes [5]: 1.3 fold
- Synapsin2 mRNA fold changes [5]: 1.8* fold
- Synaptobrevin1 mRNA fold changes [5]: −1.4 fold
- Synaptobrevin2 mRNA fold changes [5]: 1.0 fold
- Synaptophysin mRNA fold changes [5]: −1.6* fold
- Synaptopodin mRNA fold changes [5]: −1.1 fold
- TFAM mRNA fold changes [5]: −1.5* fold

Source: patent US12208108B2, “Drug targets of delayed aging and human brain diseases” (Texas Tech University System, priority 2016, dated 2025)
